Four compounds from patent publication US20140066449A1, “DIPYRIDINIUM DERIVATIVES” (SABREPHARM LIMITED, priority 2011, published 2014) can be followed below.

Values joined by “and” are separate entries in the source; they are usually repeats but may differ in a detail not shown here. Equal values may be shown once. Read-outs that look alike come from different tables or passages of the source.

For data set [1], the system named is HT-29 colon adenocarcinoma. Nature of the data set: MTT in vitro cytotoxicity, HT-29. Format: cell-based. The note with it: HT-29, 10 day exposure. As to the method: (§1) All were stored in the dark at 4° C. An accurately weighed amount of each compound was dissolved in DMSO and Hank's Balanced Salt Solution (Sigma) according to Table 2 below:
(§2) Further dilutions were made in complete RPMI1640 cell culture medium (RPMI1640 cell culture medium supplemented with 10% foetal bovine serum, 1 mM L-glutamine, and 2 mM sodium pyruvate (all from Sigma)).
(§3) H460 non-small cell lung adenocarcinoma, HT-29 colon adenocarcinoma and MCF-7 breast adenocarcinoma (ECACC, Salisbury, Wiltshire) were used for analysis. Cells were cultured in complete RPMI1640 cell culture medium, and maintained as monolayer cultures at 37° C. in a humidified 5% CO2 environment.
(§4) Tumour cell growth inhibition was assessed using the MTT assay with a standard 96 hour plus an extended 10 day incubation. For the 96 hour assay 1×10^4 cells were inoculated into each well of a 96-well plate and incubated overnight at 37° C. in a humidified atmosphere containing 5% CO2 to give time to adhere to the wells and form a monolayer. For the 10 day incubation, 1×102 (H460 and HT-29) and 1×103 (MCF-7) cells were inoculated. The next day, culture medium was removed from each well and replaced with cell culture media for the untreated control, or media containing compound, and the plates then incubated for a further 96 hours or 10 days. […] After 96 hours or 10 days culture medium was removed and 200 μL of 0.5 mgmL-1 MTT solution (Sigma) in complete medium added to each well. Following a further 4 hours incubation, the solution was removed from each well and 150 μL of DMSO added to solubilise the formazan crystals resulting from MTT conversion. Absorbance values for the resulting solutions were read at 550 nm on a Multiskan Ex microplate reader (Thermo Fisher, Loughborough, UK) and cell survival calculated as the absorbance of treated cells divided by the control. Results are expressed in terms of IC50 values (i.e. concentration of compound required to kill 50% of cells), which were determined manually in Microsoft Excel from plots of concentration versus percentage cell survival, and all experiments were performed in triplicate.

Data set [2] relates to MCF-7 breast adenocarcinoma. Put plainly: MTT in vitro cytotoxicity, MCF-7. Format: cell-based, human. As to conditions: MCF-7, 10 day exposure. As to the method: as §1, §2, §3, §4
Data set [3] deals with H460 non-small cell lung adenocarcinoma. Put plainly: MTT in vitro cytotoxicity, H460. As to conditions: H460, 10 day exposure. Format: cell-based. As to the method:
as §1, §2, §3, §4

Data set [4] is described as follows: Redox potential study, square wave voltammetry. Format: physicochemical. As to conditions: 0.1 mol dm-3 LiNTf2, 20° C., first scan. As to the method:
BioAnalytical Systems CV50W potentiostat (from BAS Inc., USA)
Square wave voltammetry (4 mV step, 25 mV pulse, 10 Hz SW frequency)
3 mm diameter glassy carbon working electrode (from BAS)
3 mm diameter glassy carbon counter electrode (from BAS)
Saturated calomel reference electrode (SCE, from Sycopel Scientific Ltd., UK)
0.1 mol dm-3 lithium bis(trifluoromethanesulphonyl)imide ((LiNTf2)CAS 90076-65-6, from 3M)
Voltammograms were recorded from 0.5 V to −1.2 V in deoxygenated solutions of the Compounds.

In data set [5] the test system is MCF-7 Human Breastadenocarclnoma Xenograft. Put plainly: MCF-7 xenograft model study. Format: in vivo, mice. The text has this: Evaluation of the Efficacy of the Compounds C & D (Examples 2 & 3 Respectively) in the MCF-7 Human Breastadenocarclnoma Xenograft Model
For data set [6], the system named is human mitochondria isolated from HEK293 cells. Nature of the data set: ROS production in isolated mitochondria (DCFDA). Format: biochemical. The note with it: isolated HEK293 mitochondria, 100 μM, 120 mins. As to the method: The ability of test compounds to impact ROS production in isolated mitochondria after 120 mins exposure was assessed.
Mitochondria were isolated from harvested human embryonic kidney (HEK293) cells (20×10^6) using a commercial kit (Thermo Scientific) before re-suspension in PBS to a final volume of 800 μL. […] Independent experiments (each assessing the impact of all four compounds along with a positive [AAPH; 5.0 mM] and vehicle control) were repeated three times.

The test system of the next data set is MCF7 [Breast]. Put plainly: Combination with cisplatin, MCF-7. Format: cell-based, human.
In the next data set the test system is A2780 [ovarian]. Put plainly: Combination with cisplatin, A2780. Format: cell-based.
Data set [7] concerns A2780/cis [cisplatin ovarian resistant line]. Put plainly: Combination with cisplatin, A2780/cis. Format: cell-based.
The next data set concerns M 14 [melanoma]. Nature of the data set: Combination with cisplatin, M14. Format: cell-based.
Setting [8] is: highest concentration 30 μM, read-out: IC50 Run 1.
[9] abbreviates: highest concentration 100 μM, read-out: IC50 Run 2.
Setting [10] is: highest concentration 100 μM, read-out: IC50 Run 3.
Setting [11] is: 200 mg/kg, i.v., d 0, 2, 4, 7, 9 & 11.
[12] abbreviates: mean of runs, read-out: IC50 Mean.
Where [13] appears, read: cisplatin 1 μM alone (compound 0 μM).
Setting [14] is: cisplatin 3 μM alone (compound 0 μM).
The mark [15] stands for this setting: cisplatin 10 μM alone (compound 0 μM).

In the case of “3-((2-(2-methoxy-ethoxy)(ethoxy)n)methyl)-6,7-dihydrodipyrido[1,2-a:2′,1′-c]pyrazine-5,8-diium bistrifluoromethanesulfonate [Compound C]”, the IC50 in [1] (setting [8]) was over 30 µM; in [1] (setting [9]), 82 µM; in data set [1] (setting [10]), 78 µM; in data set [2] (setting [8]), over 30 µM; in data set [2] (setting [9]), 97 µM; in [2] (setting [10]) it was over 100 µM. For the same compound, the values for the concentration for half-maximal inhibition (IC50) in data set [3] (setting [8]), in [3] (setting [9]) and in [3] (setting [10]) were over 30 µM, over 100 µM and over 100 µM, respectively. Also, the “Reduction potential 1” value in data set [4] was −0.470 V vs. SCE. Besides, in [4], the “Reduction potential 2” value is reported as −0.803 V vs. SCE. Also, in [5] (setting [11]), the “Growth delay” value came out at 3.1 days. In addition, the “Maximum % weight loss” value in data set [5] (setting [11]) is 0%.

Turning to “3-(((2-(2-methoxyethoxy)(ethoxy)n)ethyl) hexane-1,6-diyldicarbamate)methyl)-6,7-dihydrodipyrido[1,2-a:2′,1′-c]pyrazine-5,8-diium bistrifluoromethanesulfonate [Compound D]”, the IC50 in data set [1] (setting [8]) is over 30 µM; in data set [1] (setting [9]), over 100 µM; in [1] (setting [10]), 81 µM; in [2] (setting [8]), over 30 µM; in data set [2] (setting [9]), 72 µM; in data set [2] (setting [10]), over 100 µM. Further, the IC50 was over 30 µM in [3] (setting [8]), over 100 µM in data set [3] (setting [9]) and over 100 µM in data set [3] (setting [10]). Also, the “Reduction potential 1” value in data set [4] is reported as −0.423 V vs. SCE. In addition, in data set [4], the “Reduction potential 2” value is reported as −0.828 V vs. SCE. In addition, the “Growth delay” value in data set [5] (setting [11]) amounted to 2.4 days. Also, in data set [5] (setting [11]), the “Maximum % weight loss” value stood at 0%.

In the case of “3-(((2-(2-methoxyethoxy)(ethoxy)n)ethyl) hexane-1,6-diyldicarbamate)methyl)-6,7-dihydrodipyrido[1,2-a:2′,1′-c]pyrazine-5,8-diium bistrifluoromethanesulfonate [G]”, the “rank order of efficacy (ROS production)” value in [6] was “F>G>B>A”. Besides, in [6] (room temperature), the “ROS production relative to vehicle treatment” value is on record as “robustly increased ROS production”.

As for `N.N.[Cl][Pt][Cl]` [Cisplatin], the IC50 in data set [1] (setting [8]) was 2.4 µM; in data set [1] (setting [9]), 1.3 µM; in data set [1] (setting [10]), 0.7 µM; in data set [1] (setting [12]), 1.5 µM; in data set [2] (setting [8]) it was 2.3 µM; in data set [2] (setting [9]), 2.3 µM. Besides, the IC50 in data set [2] (setting [10]) turned out to be 2.5 µM; in data set [2] (setting [12]), 2.4 µM; in [3] (setting [8]), 1.1 µM; in data set [3] (setting [9]), 1 µM; in data set [3] (setting [10]), 0.9 µM; in data set [3] (setting [12]) it was 1 µM. Further, the “% cell survival” value with MCF7 [Breast] (cisplatin 0.1 μM alone (compound 0 μM)) is 107.4% and 110.8%; with MCF7 [Breast] (cisplatin 0.3 μM alone (compound 0 μM)), 76% and 91.3%; in the data set with MCF7 [Breast] (setting [13]), 72.4% and 70.3%; in the data set with A2780 [ovarian] (setting [13]), 49.5% and 52.5%; in the data set with A2780 [ovarian] (setting [14]), 19.6% and 19.2%; in the data set on A2780 [ovarian] (setting [15]), 4.8% and 5.8%. Besides, the “% cell survival” value was 36.3% and 39.7% in data set [7] (setting [15]); 8.7% and 8.6% in data set [7] (cisplatin 30 μM alone (compound 0 μM)); −0.5% and 1.1% in [7] (cisplatin 100 μM alone (compound 0 μM)); 85.6% and 97.7% in the data set with M 14 [melanoma] (setting [13]); 77.1% and 84.8% with M 14 [melanoma] (setting [14]); 58.3% and 63.3% in the data set on M 14 [melanoma] (setting [15]). In addition, the “Growth delay” value in data set [5] (10 mg/kg, i.p., d 0) is on record as 5.1 days. Also, the “Maximum % weight loss” value in [5] (10 mg/kg, i.p., d 0) was 8.0%. The “weight loss of tumour bearing mice” value in data set [5] (xenograft studies, FIG. 6) was “significant weight loss”.

As usually defined, the IC50 is the point on the concentration scale where inhibition reaches its midpoint.
